# Patent US8729078B2, “Inhibitors of bruton's tyrosine kinase” (Hoffmann-La Roche Inc., priority 2011, dated 2014)
# Tests used:
# Ramos cells = assay: Inhibition of B-cell activation, B cell FLIPR assay in Ramos cells (anti-IgM stimulated calcium increase); assay type: cell-based; settings: Homo sapiens, anti-IgM stimulated Ca2+ signaling
# Text: Inhibition of B-Cell Activation—B Cell FLIPR Assay in Ramos Cells
# The B cell FLIPR assay is a cell based functional method of determining the effect of potential inhibitors of the intracellular calcium increase from stimulation by an anti-IgM antibody. Ramos cells (human Burkitt's lymphoma cell line. ATCC-No. CRL-1596) were cultivated in Growth Media (described below). One day prior to assay, Ramos cells were resuspended in fresh growth media (same as above) and set at a concentration of 0.5×10^6/mL in tissue culture flasks. On day of assay, cells are counted and set at a concentration of 1×10^6/mLl in growth media supplemented with 1 μM FLUO-3AM (TefLabs Cat-No. 0116, prepared in anhydrous DMSO and 10% Pluronic acid) in a tissue culture flask, and incubated at 37° C. (4% CO2) for one h. To remove extracellular dye, cells were collected by centrifugation (5 min, 1000 rpm), resuspended in FLIPR buffer (described below) at 1×10^6 cells/mL and then dispensed into 96-well poly-D-lysine coated black/clear plates (BD Cat-No. 356692) at 1×10^5 cells per well. Test compounds were added at various concentrations ranging from 100 μM to 0.03 μM (7 concentrations, details below), and allowed to incubate with cells for 30 min at RT. Ramos cell Ca^2+ signaling was stimulated by the addition of 10 μg/mL anti-IgM (Southern Biotech, Cat-No. 2020-01) and measured on a FLIPR (Molecular Devices, captures images of 96 well plates using a CCD camera with an argon laser at 480 nm excitation).
# Growth Medium: RPMI 1640 medium with L-glutamine (Invitrogen, Cat-No. 61870-010), 10% Fetal Bovine Serum (FBS, Summit Biotechnology Cat-No. FP-100-05); 1 mM Sodium Pyruvate (Invitrogen Cat. No. 11360-070).
# FLIPR buffer: HBSS (Invitrogen, Cat-No. 141175-079), 2 mM CaCl2 (Sigma Cat-No. C-4901), HEPES (Invitrogen, Cat-No. 15630-080), 2.5 mM Probenecid (Sigma, Cat-No. P-8761), 0.1% BSA (Sigma, Cat-No. A-7906), 11 mM Glucose (Sigma, Cat-No. G-7528)
# Compound Dilution Details:
# In order to achieve the highest final assay concentration of 100 μM, 24 μL of 10 mM compound stock solution (made in DMSO) is added directly to 576 μL of FLIPR buffer. The test compounds are diluted in FLIPR Buffer (using Biomek 2000 robotic pipettor) resulting in the following dilution scheme: vehicle, 1.00×10^−4 M, 1.00×10^−5, 3.16×10^−6, 1.00×10^−6, 3.16×10^−7, 1.00×10^−7, 3.16×10^−8.
# Intracellular increases in calcium were reported using a max-min statistic (subtracting the resting baseline from the peak caused by addition of the stimulatory antibody using a Molecular Devices FLIPR control and statistic exporting software. The IC50 was determined using a non-linear curve fit (GraphPad Prism software).
# Btk = Btk (Homo sapiens (Human), UniProt Q06187); assay: Bruton's Tyrosine Kinase (Btk) inhibition assay (FRET BTK); assay type: biochemical
# [1] = system: B cells in human whole blood (CD69 expression); assay: Inhibition of B cell activation in whole blood measured by CD69 expression; assay type: cell-based; settings: anti-IgM stimulation, CD69-positive CD20-positive cells
# Method: Inhibition of B Cell Activation in Whole Blood Measured by CD69 Expression
# A procedure to test the ability of Btk inhibitors to suppress B cell receptor-mediated activation of B cells in human blood is as follows:
# Human whole blood (HWB) is obtained from healthy volunteers, with the following restrictions: 24 hr drug-free, non-smokers. Blood is collected by venipuncture into Vacutainer tubes anticoagulated with sodium heparin. Test compounds are diluted to ten times the desired starting drug concentration in PBS (20×), followed by three-fold serial dilutions in 10% DMSO in PBS to produce a nine point dose-response curve. 5.5 μl of each compound dilution is added in duplicate to a 2 ml 96-well V bottom plate (Analytical Sales and Services, #59623-23); 5.5 μl of 10% DMSO in PBS is added to control and no-stimulus wells. HWB (100 μl) is added to each well, and after mixing the plates are incubated at 37 C, 5% CO2, 100% humidity for 30 minutes. Goat F(ab′)2 anti-human IgM (Southern Biotech, #2022-14) (10 μl of a 500 μg/ml solution, 50 μg/ml final concentration) is added to each well (except the no-stimulus wells) with mixing and the plates are incubated for an additional 20 hours.
# At the end of the 20 hour incubation, samples are incubated with florescent-probe-labeled anti-bodies (15 μl PE Mouse anti-Human CD20, BD Pharmingen, #555623, and/or 20 ul APC Mouse anti-Human CD69, BD Pharmingen #555533) for 30 minutes, at 37 C, 5% CO2, 100% humidity. Included are induced control, unstained and single stains for compensation adjustments and initial voltage settings. Samples are then lysed with 1 ml of 1× Pharmingen Lyse Buffer (BD Pharmingen #555899), and plates are centrifuged at 1800 rpm for 5 minutes. Supernatants are removed via suction and the remaining pellets are lysed again with another 1 ml of 1× Pharmingen Lyse Buffer, and plates are spun down as before. Supernatants are aspirated and remaining pellets are washed in FACs buffer (PBS+1% FBS). After a final spin, the supernantants are removed and pellets are resuspended in 180 μl of FACs buffer. Samples are transferred to a 96 well plate suitable to be run on the HTS 96 well system on the BD LSR II flow cytometer.
# Using appropriate excitation and emission wavelengths for the fluorophores used, data are acquired and percent positive cell values are obtained using Cell Quest Software. Results are initially analyzed by FACS analysis software (Flow Jo). […] The IC50 values are calculated using XLfit software version 3, equation 201.
# Btk, sequence (Q06187 whole entry): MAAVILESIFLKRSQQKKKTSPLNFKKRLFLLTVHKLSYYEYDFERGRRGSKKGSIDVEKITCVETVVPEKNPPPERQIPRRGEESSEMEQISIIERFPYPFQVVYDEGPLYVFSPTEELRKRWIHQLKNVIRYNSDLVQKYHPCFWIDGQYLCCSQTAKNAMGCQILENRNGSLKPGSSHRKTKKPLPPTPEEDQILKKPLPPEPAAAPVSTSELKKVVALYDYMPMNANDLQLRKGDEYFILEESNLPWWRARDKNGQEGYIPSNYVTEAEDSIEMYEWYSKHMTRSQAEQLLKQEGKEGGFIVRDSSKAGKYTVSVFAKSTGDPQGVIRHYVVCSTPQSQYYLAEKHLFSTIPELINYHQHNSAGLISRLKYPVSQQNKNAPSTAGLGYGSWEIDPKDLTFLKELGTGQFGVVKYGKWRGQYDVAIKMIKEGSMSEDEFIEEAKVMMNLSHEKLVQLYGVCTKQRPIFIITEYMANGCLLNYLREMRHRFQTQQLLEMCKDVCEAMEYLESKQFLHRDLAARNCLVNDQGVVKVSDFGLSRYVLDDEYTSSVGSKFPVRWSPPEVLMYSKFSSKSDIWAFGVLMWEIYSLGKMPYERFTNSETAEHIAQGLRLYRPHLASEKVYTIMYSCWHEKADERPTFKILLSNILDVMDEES
SMILES,IC50 (Ramos cells) [µM],IC50 (Btk) [µM],IC50 [1] [µM]
"Cn1cc(-c2cccc(-n3ncc4cc(C(C)(C)C)ccc4c3=O)c2CO)nc1C(N)=O [Compound I-1, 4-[3-(6-tert-Butyl-1-oxo-1H-phthalazin-2-yl)-2-hydroxymethyl-phenyl]-1-methyl-1H-imidazole-2-carboxylic acid amide]",11.2,0.05,
"CC(C)(C)c1cc(F)c2c(=O)n(-c3cccc(-n4cc(C(N)=O)c5cccnc54)c3CO)ncc2c1 [Compound I-15, 1-[3-(6-tert-Butyl-8-fluoro-1-oxo-1H-phthalazin-2-yl)-2-hydroxymethyl-phenyl]-1H-pyrrolo[2,3-b]pyridine-3-carboxylic acid amide]",0.04,0.0032,0.759
"Cn1cc(-c2ccnc(-n3ncc4cc(C(C)(C)C)cc(F)c4c3=O)c2CO)cc1C(N)=O [Compound I-16, 4-[2-(6-tert-Butyl-8-fluoro-1-oxo-1H-phthalazin-2-yl)-3-hydroxymethyl-pyridin-4-yl]-1-methyl-1H-pyrrole-2-carboxylic acid amide]",0.27,0.02,1.43
"CC(C)(C)c1ccc2c(=O)n(-c3cccc(-c4nc(C(N)=O)cs4)c3CO)ncc2c1 [Compound I-2, 2-[3-(6-tert-Butyl-1-oxo-1H-phthalazin-2-yl)-2-hydroxymethyl-phenyl]-thiazole-4-carboxylic acid amide]",1.59,0.281,
"Cc1nc(-c2cccc(-n3ncc4cc(C(C)(C)C)ccc4c3=O)c2CO)oc1C(N)=O [Compound I-6, 2-[3-(6-tert-Butyl-1-oxo-1H-phthalazin-2-yl)-2-hydroxymethyl-phenyl]-4-methyl-oxazole-5-carboxylic acid amide]",,1.26,> 5
